According to US20250340574A1, “MODULATORS OF CYSTIC FIBROSIS TRANSMEMBRANE CONDUCTANCE REGULATOR” (Vertex Pharmaceuticals Incorporated, priority 2022, published 2025):
pEC50: −log10 of the molar value. Read-outs that look alike come from different tables or passages of the source. One block for each compound: values may come before it.

Columns and labels:
[1] = amide bond, 13-membered ring, CDMT/NMM, DMF
[2] = molecular target: T1, CFTR (F508del/MF-HBE cells) (Homo sapiens, UniProt P13569, DEL508-508); experiment: Ussing chamber assay of CFTR-mediated short-circuit currents, Assay A (0.1 μM to 25 μM, 6 concentrations); assay type: cell-based; conditions: with 33 nM potentiator and 18 μM Tezacaftor, 20% human serum; for Emax: 18-24 hours, read-out: A Max activity (%)
T1 construct: human bronchial epithelial (HBE) cells derived from CF subjects heterozygous for F508del and a minimal function CFTR mutation (F508del/MF-HBE); endogenous in cells; host or cells: Primary human bronchial epithelial cells from CF subjects (F508del/MF genotype), differentiated at an air-liquid interface
Procedure, shortened: (§1)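 F508del/MF-HBE cells grown at air-liquid interface were incubated 18-24 h at 37 °C in 20% human serum with correctors plus 18 μM tezacaftor and a fixed partner compound (33 nM for concentration series, 44 nM at 1 μM). ISC was read at 0 mV after 20 μM forskolin, minus the post-inhibitor current.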

[3] = molecular target: T1, CFTR (F508del/MF-HBE cells); experiment: Ussing chamber assay of CFTR-mediated short-circuit currents, Assay B (0.00001 μM to 25 μM, 12 concentrations); assay type: cell-based; conditions: with 33 nM potentiator and 18 μM Tezacaftor, 20% human serum; for Emax: 18-24 hours, read-out: B Max activity (%)
Method: Ussing chamber experiments were performed using human bronchial epithelial (HBE) cells derived from CF subjects heterozygous for F508del and a minimal function CFTR mutation (F508del/MF-HBE) and cultured as previously described (Neuberger T, Burton B, Clark H, Van Goor F Methods Mol Biol 2011:741:39-54). After four days the apical media was removed, and the cells were grown at an air liquid interface for >14 days prior to use.
To isolate the CFTR-mediated short-circuit (ISC) current, F508del/MF-HBE grown on Costar® Snapwell™ cell culture inserts were mounted in an Ussing chamber and the transepithelial ISC was measured under voltage-clamp recording conditions (Vhold=0 mV) at 37° C. The basolateral solution contained (in mM) 145 NaCl, 0.83 K2HPO4, 3.3 KH2PO4, 1.2 MgCl2, 1.2 CaCl2, 10 Glucose, 10 HEPES (pH adjusted to 7.4 with NaOH) and the apical solution contained (in mM) 145 NaGluconate, 1.2 MgCl2, 1.2 CaCl2, 10 glucose, 10 HEPES (pH adjusted to 7.4 with NaOH) and 30 μM amiloride to block the epithelial sodium channel. Forskolin (20 μM) was added to the apical surface to activate CFTR, followed by apical addition of a CFTR inhibitor cocktail consisting of BPO, GlyH-101, and CFTR inhibitor 172 (each at 20 μM final assay concentration) to specifically isolate CFTR currents. The CFTR-mediated ISC (μA/cm^2) for each condition was determined from the peak forskolin response to the steady-state current following inhibition.
The activity of the CFTR corrector compounds on the CFTR-mediated ISC was determined in Ussing chamber studies as described above. The F508del/MF-HBE cell cultures were either incubated with the corrector compounds at a range of concentrations in combination with 33 nM (6R,12R)-17-amino-12-methyl-6,15-bis(trifluoromethyl)-13,19-dioxa-3,4,18-triazatricyclo[12.3.1.12,5]nonadeca-1(18),2,4,14,16-pentaen-6-ol and 18 μM Tezacaftor or were incubated with the corrector compounds at a single fixed concentration of 1 μM in combination with 44 nM (6R,12R)-17-amino-12-methyl-6,15-bis(trifluoromethyl)-13,19-dioxa-3,4,18-triazatricyclo[12.3.1.12,5]nonadeca-1(18),2,4,14,16-pentaen-6-ol and 18 μM Tezacaftor for 18-24 hours at 37° C. and in the presence of 20% human serum. The concentration of corrector compounds with 44 nM or 33 nM (6R,12R)-17-amino-12-methyl-6,15-bis(trifluoromethyl)-13,19-dioxa-3,4,18-triazatricyclo[12.3.1.12,5]nonadeca-1(18),2,4,14,16-pentaen-6-ol and 18 μM Tezacaftor during the 18-24 hours incubations was kept constant throughout the Ussing chamber measurement of the CFTR-mediated ISC to ensure compounds were present throughout the entire experiment. The efficacy and potency of the putative F508del correctors was compared to that of the known Vertex corrector, (14S)-8-[3-(2-{Dispiro[2.0.2.1]heptan-7-yl}ethoxy)-1H-pyrazol-1-yl]-12,12-dimethyl-2λ^6-thia-3,9,11,18,23-pentaazatetracyclo[17.3.1.111,14.05,10]tetracosa-1(22),5,7,9,19(23),20-hexaene-2,2,4-trione, in combination with 18 μM Tezacaftor and 1 μM Ivacaftor.
• Assay A: 0.1 μM to 25 μM, 6 concentrations • Assay B: 0.00001 μM to 25 μM, 12 concentrations • Assay C: 0.026 μM to 25 μM, 6 concentrations • Assay D: Activity at single concentration of 1 μM

[4] = molecular target: T1, CFTR (F508del/MF-HBE cells); experiment: Ussing chamber assay of CFTR-mediated short-circuit currents, Assay C (0.026 μM to 25 μM, 6 concentrations); assay type: cell-based; conditions: with 33 nM potentiator and 18 μM Tezacaftor, 20% human serum; for Emax: read-out: C Max activity (%)
Procedure, shortened: as §1

[5] = molecular target: T1, CFTR (F508del/MF-HBE cells); experiment: Ussing chamber assay of CFTR-mediated short-circuit currents, Assay D (single concentration of 1 μM); assay type: cell-based; conditions: with 44 nM potentiator and 18 μM Tezacaftor, 20% human serum
Procedure, shortened: as §1

T1 sequence (P13569 with tags, fused parts or gaps DEL508-508): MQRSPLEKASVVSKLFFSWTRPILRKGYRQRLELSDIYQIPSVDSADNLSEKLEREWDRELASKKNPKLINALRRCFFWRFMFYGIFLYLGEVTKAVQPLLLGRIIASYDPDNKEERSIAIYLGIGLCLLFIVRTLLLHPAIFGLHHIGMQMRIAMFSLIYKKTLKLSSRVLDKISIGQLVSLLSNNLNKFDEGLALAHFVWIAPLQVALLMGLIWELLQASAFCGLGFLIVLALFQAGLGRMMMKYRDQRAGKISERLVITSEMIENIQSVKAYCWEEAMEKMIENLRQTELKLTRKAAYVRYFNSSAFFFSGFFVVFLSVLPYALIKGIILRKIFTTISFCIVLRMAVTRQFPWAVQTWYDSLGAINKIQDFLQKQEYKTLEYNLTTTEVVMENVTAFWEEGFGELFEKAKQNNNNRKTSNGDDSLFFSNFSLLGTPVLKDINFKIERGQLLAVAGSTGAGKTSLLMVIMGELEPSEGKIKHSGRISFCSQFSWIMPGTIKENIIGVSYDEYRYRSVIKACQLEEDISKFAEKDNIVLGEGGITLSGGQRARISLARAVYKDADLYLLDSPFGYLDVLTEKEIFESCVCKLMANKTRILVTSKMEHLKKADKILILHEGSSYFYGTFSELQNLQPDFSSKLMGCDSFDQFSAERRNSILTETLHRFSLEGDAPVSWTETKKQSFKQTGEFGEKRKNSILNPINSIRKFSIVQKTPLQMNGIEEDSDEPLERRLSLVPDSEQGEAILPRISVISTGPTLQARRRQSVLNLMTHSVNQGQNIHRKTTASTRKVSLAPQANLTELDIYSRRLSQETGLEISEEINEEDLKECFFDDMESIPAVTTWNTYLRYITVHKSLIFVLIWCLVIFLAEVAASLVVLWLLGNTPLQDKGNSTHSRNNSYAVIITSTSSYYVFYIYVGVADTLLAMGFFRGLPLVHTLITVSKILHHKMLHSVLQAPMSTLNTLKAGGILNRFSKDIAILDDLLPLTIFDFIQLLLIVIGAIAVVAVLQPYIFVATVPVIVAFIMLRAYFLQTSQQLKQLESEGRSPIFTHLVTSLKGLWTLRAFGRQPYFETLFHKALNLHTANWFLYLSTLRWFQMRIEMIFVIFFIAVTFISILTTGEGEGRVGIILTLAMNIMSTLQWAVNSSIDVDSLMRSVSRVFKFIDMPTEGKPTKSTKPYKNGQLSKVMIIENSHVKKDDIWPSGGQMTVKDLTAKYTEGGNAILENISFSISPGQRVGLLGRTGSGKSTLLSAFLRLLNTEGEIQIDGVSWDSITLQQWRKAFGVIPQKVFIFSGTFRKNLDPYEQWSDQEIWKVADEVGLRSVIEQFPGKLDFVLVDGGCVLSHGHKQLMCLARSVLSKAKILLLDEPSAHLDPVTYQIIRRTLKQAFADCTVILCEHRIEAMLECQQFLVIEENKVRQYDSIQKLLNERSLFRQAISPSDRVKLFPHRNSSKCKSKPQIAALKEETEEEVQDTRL

SMILES: Cc1cccc(C)c1-c1cc2nc(n1)NS(=O)(=O)c1cccc(c1)C(=O)N(Cc1cnc3oc(C(C)C)c(C)c3n1)[C@H](CC13CC(C1)C3)CO2 [Compound I-62, (11R)-11-(1-bicyclo[1.1.1]pentanylmethyl)-6-(2,6-dimethylphenyl)-12-[(6-isopropyl-7-methyl-furo[2,3-b]pyrazin-2-yl)methyl]-2,2-dioxo-9-oxa-2λ^6-thia-3,5,12,19-tetrazatricyclo[12.3.1.14,8]nonadeca-1(18),4(19),5,7,14,16-hexaen-13-one]
- ring closure, yield after HPLC ([1]; from Cc1cccc(C)c1-c1cc(OC[C@@H](CC23CC(C2)C3)NCc2cnc3oc(C(C)C)c(C)c3n2)nc(NS(=O)(=O)c2cccc(C(=O)O)c2)n1, 39.5 mM, 14.0 h): 70%
- Emax [2]: > 60%
- pEC50 [2]: > 6.00

SMILES: Cc1cccc(C)c1-c1cc2nc(n1)NS(=O)(=O)c1cccc(c1)C(=O)N(Cc1cnc3oc(C(C)C)cc3n1)[C@H](CCC1(C)CCC1)CO2 [Compound I-13, (11R)-6-(2,6-dimethylphenyl)-12-[(6-isopropylfuro[2,3-b]pyrazin-2-yl)methyl]-11-[2-(1-methylcyclobutyl)ethyl]-2,2-dioxo-9-oxa-2λ^6-thia-3,5,12,19-tetrazatricyclo[12.3.1.14,8]nonadeca-1(18),4(19),5,7,14,16-hexaen-13-one]
- ring closure, yield after HPLC ([1]; from Cc1cccc(C)c1-c1cc(OC[C@@H](CCC2(C)CCC2)NCc2cnc3oc(C(C)C)cc3n2)nc(NS(=O)(=O)c2cccc(C(=O)O)c2)n1, 13.5 mM, 16.5 h): 37%
- Emax [2]: > 60%
- pEC50 [2]: > 6.00

SMILES: Cc1cccc(C)c1-c1cc2nc(n1)NS(=O)(=O)c1cccc(c1)C(=O)N(Cc1cnc3oc(C4CC4)cc3n1)[C@H](CC1(F)CCC1)CO2 [Compound I-123, (11R)-12-[(6-cyclopropylfuro[2,3-b]pyrazin-2-yl)methyl]-6-(2,6-dimethylphenyl)-11-[(1-fluorocyclobutyl)methyl]-2,2-dioxo-9-oxa-2λ^6-thia-3,5,12,19-tetrazatricyclo[12.3.1.14,8]nonadeca-1(18),4(19),5,7,14,16-hexaen-13-one]
- ring closure, yield after HPLC ([1]; from Cc1cccc(C)c1-c1cc(OC[C@@H](CC2(F)CCC2)NCc2cnc3oc(C4CC4)cc3n2)nc(NS(=O)(=O)c2cccc(C(=O)O)c2)n1, 27.1 mM, 2.08 h): 53%
- Emax [3]: > 60%
- pEC50 [3]: 4.52 to 5.52

SMILES: Cc1cccc(C)c1-c1cc2nc(n1)NS(=O)(=O)c1cccc(c1)C(=O)N(Cc1cnc3cn(C(C)C)nc3n1)[C@H](CC1(C)CC1)CO2 [Compound I-128, (11R)-6-(2,6-Dimethylphenyl)-12-[(2-isopropylpyrazolo[3,4-b]pyrazin-6-yl)methyl]-11-[(1-methylcyclopropyl)methyl]-2,2-dioxo-9-oxa-2λ^6-thia-3,5,12,19-tetrazatricyclo[12.3.1.14,8]nonadeca-1(18),4(19),5,7,14,16-hexaen-13-one]
- ring closure, yield after HPLC ([1]; from Cc1cccc(C)c1-c1cc(OC[C@@H](CC2(C)CC2)NCc2cnc3cn(C(C)C)nc3n2)nc(NS(=O)(=O)c2cccc(C(=O)O)c2)n1, 12.0 mM, 22.5 h): 38%
- Emax [3]: > 60%
- pEC50 [3]: 4.52 to 5.52

SMILES: CCc1c2nc(nc1-c1c(C)cccc1C)NS(=O)(=O)c1cccc(c1)C(=O)N(Cc1cnc3cc(C(C)(C)C)n(C)c3n1)[C@H](COC(C)C)CO2 [IV-4, (11R)-12-[(6-tert-butyl-5-methyl-pyrrolo[2,3-b]pyrazin-3-yl)methyl]-6-(2,6-dimethylphenyl)-7-ethyl-11-(isopropoxymethyl)-2,2-dioxo-9-oxa-2λ^6-thia-3,5,12,19-tetrazatricyclo[12.3.1.14,8]nonadeca-1(17),4(19),5,7,14(18),15-hexaen-13-one]
- ring closure, yield after HPLC ([1]; from CCc1c(OC[C@@H](COC(C)C)NCc2cnc3cc(C(C)(C)C)n(C)c3n2)nc(NS(=O)(=O)c2cccc(C(=O)O)c2)nc1-c1c(C)cccc1C, 10.0 mM, 25.0 °C, 3.5 h): 20%
- pEC50 [4]: > 6.00
- Emax [4]: > 60%
- D act. at 1 μM (%) [5]: +++ (+++ is >60%)

Continued, in another order:

- Emax ([4]; 18-24 hours): > 60%
- pEC50 [4]: > 6.00
- D activity at 1 μM (%) ([5]; 18-24 hours): +++ (+++ is >60%)
SMILES: Cc1cccc(C)c1-c1cc2nc(n1)NS(=O)(=O)c1cccc(c1)C(=O)N(Cc1cnc3cc(C(C)(C)C)n(C)c3n1)[C@H](CC1(C)CC1)CO2 [Compound I-187, (11R)-12-[(6-tert-Butyl-5-methyl-pyrrolo[2,3-b]pyrazin-3-yl)methyl]-6-(2,6-dimethylphenyl)-11-[(1-methylcyclopropyl)methyl]-2,2-dioxo-9-oxa-2λ^6-thia-3,5,12,19-tetrazatricyclo[12.3.1.14,8]nonadeca-1(18),4(19),5,7,14,16-hexaen-13-one]
- ring closure, yield after HPLC ([1]; from Cc1cccc(C)c1-c1cc(OC[C@@H](CC2(C)CC2)NCc2cnc3cc(C(C)(C)C)n(C)c3n2)nc(NS(=O)(=O)c2cccc(C(=O)O)c2)n1, 22.5 mM, 4.0 h): 41%

- Emax [2]: > 60%
- pEC50 [2]: > 6.00
SMILES: Cc1cccc(C)c1-c1cc2nc(n1)NS(=O)(=O)c1cccc(c1)C(=O)N(Cc1nc3c(cc1F)cc(C(C)C)n3C)[C@H](CC13CC(C1)C3)CO2 [Compound I-87, (11R)-11-(1-bicyclo[1.1.1]pentanylmethyl)-6-(2,6-dimethylphenyl)-12-[(5-fluoro-2-isopropyl-1-methyl-pyrrolo[2,3-b]pyridin-6-yl)methyl]-2,2-dioxo-9-oxa-2λ^6-thia-3,5,12,19-tetrazatricyclo[12.3.1.14,8]nonadeca-1(18),4(19),5,7,14,16-hexaen-13-one]
- ring closure, yield after HPLC ([1]; from Cc1cccc(C)c1-c1cc(OC[C@@H](CC23CC(C2)C3)NCc2nc3c(cc2F)cc(C(C)C)n3C)nc(NS(=O)(=O)c2cccc(C(=O)O)c2)n1, 10.7 mM, 24.5 h): 39%

- Emax [2]: > 60%
- pEC50 [2]: > 6.00
SMILES: Cc1cccc(C)c1-c1cc2nc(n1)NS(=O)(=O)c1cccc(c1)C(=O)N(Cc1cnc3oc(C)c(C4CC4)c3n1)[C@H](COC(C)C)CO2 [Compound I-26, (11R)-12-[(7-cyclopropyl-6-methyl-furo[2,3-b]pyrazin-2-yl)methyl]-6-(2,6-dimethylphenyl)-11-(isopropoxymethyl)-2,2-dioxo-9-oxa-2λ^6-thia-3,5,12,19-tetrazatricyclo[12.3.1.14,8]nonadeca-1(18),4(19),5,7,14,16-hexaen-13-one]
- ring closure, yield after HPLC ([1]; from Cc1cccc(C)c1-c1cc(OC[C@@H](COC(C)C)NCc2cnc3oc(C)c(C4CC4)c3n2)nc(NS(=O)(=O)c2cccc(C(=O)O)c2)n1, 12.8 mM, 16.5 h): 61%
